Measurements taken from ChEMBL document CHEMBL2401729, “Histone deacetylase inhibitors equipped with estrogen receptor modulation activity” (J Med Chem, 2013).
The source made the active and inactive calls. The rule behind the calls is not given here.

How the values were obtained:
MDA-MB-231 = assay: Cytotoxicity against ERalpha and ERbeta-deficient human MDA-MB-231 cells assessed as growth inhibition after 72 hrs by MTT assay; assay type: functional, cell-based; conditions: MDA-MB-231, 72 h
MCF7 [1] = assay: Cytotoxicity against human MCF7 cells expressing ERalpha and ERbeta assessed as growth inhibition after 72 hrs by MTT assay; assay type: functional, cell-based; conditions: MCF7, 72 h
[2] = target: T1, Protein deacetylase HDAC6 (Homo sapiens, UniProt Q9UBN7); assay: Inhibition of human recombinant HDAC6 after 30 mins by fluorescence assay
T1 sequence (Q9UBN7 whole entry): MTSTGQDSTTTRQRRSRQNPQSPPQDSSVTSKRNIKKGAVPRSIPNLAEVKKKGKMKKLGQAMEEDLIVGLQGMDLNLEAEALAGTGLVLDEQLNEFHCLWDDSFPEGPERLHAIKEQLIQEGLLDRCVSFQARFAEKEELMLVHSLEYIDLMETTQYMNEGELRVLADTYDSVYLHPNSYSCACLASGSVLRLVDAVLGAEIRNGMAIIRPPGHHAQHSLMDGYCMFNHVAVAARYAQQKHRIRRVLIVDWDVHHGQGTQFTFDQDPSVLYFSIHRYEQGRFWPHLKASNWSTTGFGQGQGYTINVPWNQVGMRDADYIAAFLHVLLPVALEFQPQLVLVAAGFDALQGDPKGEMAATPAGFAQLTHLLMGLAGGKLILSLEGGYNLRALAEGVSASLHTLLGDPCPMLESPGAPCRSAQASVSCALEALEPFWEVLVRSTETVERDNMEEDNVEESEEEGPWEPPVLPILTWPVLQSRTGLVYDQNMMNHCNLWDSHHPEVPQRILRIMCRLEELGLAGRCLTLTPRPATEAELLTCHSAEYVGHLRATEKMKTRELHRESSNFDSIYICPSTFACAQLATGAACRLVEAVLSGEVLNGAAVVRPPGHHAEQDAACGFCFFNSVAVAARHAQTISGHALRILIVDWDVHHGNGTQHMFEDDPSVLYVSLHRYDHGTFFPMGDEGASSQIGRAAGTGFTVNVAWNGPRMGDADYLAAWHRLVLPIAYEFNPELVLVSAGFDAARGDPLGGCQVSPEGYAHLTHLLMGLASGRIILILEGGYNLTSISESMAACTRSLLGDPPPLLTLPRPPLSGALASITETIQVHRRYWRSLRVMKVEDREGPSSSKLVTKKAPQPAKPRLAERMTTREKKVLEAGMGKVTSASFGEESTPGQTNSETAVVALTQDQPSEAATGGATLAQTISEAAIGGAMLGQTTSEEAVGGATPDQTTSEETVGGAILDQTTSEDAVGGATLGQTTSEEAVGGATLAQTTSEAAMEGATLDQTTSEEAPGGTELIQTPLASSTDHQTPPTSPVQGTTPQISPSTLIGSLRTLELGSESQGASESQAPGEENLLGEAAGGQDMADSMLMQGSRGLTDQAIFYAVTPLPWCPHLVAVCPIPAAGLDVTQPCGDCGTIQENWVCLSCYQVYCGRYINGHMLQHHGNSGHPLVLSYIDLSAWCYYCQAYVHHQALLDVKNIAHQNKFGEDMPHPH

Histone deacetylase 1 = Histone deacetylase 1 (Homo sapiens, UniProt Q13547); assay: Inhibition of human recombinant HDAC1 after 30 mins by fluorescence assay
Estrogen receptor = target: T2, Estrogen receptor (Homo sapiens, UniProt P03372); assay: Antagonist activity at Gal4 DBD-fused human ERalpha LBD expressed in HEK293T cells assessed as inhibition of estradiol-induced transcriptional activation after 20 hrs by luciferase reporter gene assay; assay type: cell-based, HEK-293T
T2 sequence (P03372 whole entry): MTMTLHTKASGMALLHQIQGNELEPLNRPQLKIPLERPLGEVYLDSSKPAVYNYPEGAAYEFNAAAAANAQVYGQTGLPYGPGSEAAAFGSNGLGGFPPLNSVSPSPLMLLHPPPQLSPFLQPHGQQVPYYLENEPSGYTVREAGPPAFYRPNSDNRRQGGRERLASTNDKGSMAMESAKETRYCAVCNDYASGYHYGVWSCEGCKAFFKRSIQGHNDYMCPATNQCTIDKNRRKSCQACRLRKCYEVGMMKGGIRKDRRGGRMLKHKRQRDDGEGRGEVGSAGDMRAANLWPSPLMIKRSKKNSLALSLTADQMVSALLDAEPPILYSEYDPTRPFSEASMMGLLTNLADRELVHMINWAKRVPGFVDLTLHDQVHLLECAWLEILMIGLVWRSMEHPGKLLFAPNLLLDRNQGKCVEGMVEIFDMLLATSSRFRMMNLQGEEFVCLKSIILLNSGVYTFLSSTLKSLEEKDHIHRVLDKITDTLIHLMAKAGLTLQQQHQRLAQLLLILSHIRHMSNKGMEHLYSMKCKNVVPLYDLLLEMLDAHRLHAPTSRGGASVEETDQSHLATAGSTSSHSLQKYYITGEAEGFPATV

[3] = Therapeutic index, ratio of IC50 for african green monkey Vero cells to IC50 for human MCF7 cells expressing ERalpha and ERbeta; conditions: Vero cells versus MCF7 cells expressing ERalpha and ERbeta
Vero = assay: Cytotoxicity against african green monkey Vero cells assessed as growth inhibition after 72 hrs by MTT assay; assay type: ADME, cell-based; conditions: Chlorocebus sabaeus
MCF7 [4] = assay: Ratio of tamoxifen IC50 to compound IC50 for human MCF7 cells expressing ERalpha and ERbeta; assay type: functional
DU-145 = assay: Cytotoxicity against ERalpha-deficient human DU145 cells expressing ERbeta assessed as growth inhibition after 72 hrs by MTT assay; assay type: functional, cell-based; conditions: DU-145, 72 h
[5] = target: Estrogen receptor beta (Homo sapiens) (UniProt Q92731); assay: Agonist activity at Gal4 DBD-fused human ERbeta LBD expressed in HEK293T cells at 10 uM after 40 hrs by luciferase reporter gene assay; assay type: cell-based; conditions: HEK-293T
Histone deacetylase 8 = target: T3, Histone deacetylase 8 (Homo sapiens, UniProt Q9BY41); assay: Inhibition of human recombinant HDAC8 after 30 mins by fluorescence assay
T3 sequence (Q9BY41 whole entry): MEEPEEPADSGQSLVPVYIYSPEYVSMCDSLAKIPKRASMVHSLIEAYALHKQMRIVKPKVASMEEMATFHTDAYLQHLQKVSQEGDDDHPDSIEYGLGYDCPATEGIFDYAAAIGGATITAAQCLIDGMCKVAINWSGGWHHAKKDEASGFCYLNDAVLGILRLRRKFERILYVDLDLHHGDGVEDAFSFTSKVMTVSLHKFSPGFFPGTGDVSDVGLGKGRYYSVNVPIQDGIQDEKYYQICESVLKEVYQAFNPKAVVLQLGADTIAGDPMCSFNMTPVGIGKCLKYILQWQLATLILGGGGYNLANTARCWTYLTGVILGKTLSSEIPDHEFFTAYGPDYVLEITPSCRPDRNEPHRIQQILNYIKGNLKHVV

Sequence of Histone deacetylase 1 (Q13547 whole entry, the tested form may be a part): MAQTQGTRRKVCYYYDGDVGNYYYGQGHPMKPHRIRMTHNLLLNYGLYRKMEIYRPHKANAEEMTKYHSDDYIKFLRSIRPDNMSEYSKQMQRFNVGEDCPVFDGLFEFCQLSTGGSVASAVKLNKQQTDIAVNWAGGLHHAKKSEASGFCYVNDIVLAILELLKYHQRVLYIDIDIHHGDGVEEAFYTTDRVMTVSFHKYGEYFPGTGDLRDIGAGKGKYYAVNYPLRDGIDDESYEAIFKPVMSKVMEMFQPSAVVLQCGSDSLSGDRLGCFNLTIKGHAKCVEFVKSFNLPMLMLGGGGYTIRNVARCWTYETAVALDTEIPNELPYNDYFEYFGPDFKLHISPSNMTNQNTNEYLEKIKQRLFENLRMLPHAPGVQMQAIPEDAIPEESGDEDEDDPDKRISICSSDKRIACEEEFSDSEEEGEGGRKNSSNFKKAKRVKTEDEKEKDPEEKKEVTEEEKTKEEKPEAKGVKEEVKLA
Sequence of Estrogen receptor beta (Homo sapiens) (Q92731 whole entry, the tested form may be a part): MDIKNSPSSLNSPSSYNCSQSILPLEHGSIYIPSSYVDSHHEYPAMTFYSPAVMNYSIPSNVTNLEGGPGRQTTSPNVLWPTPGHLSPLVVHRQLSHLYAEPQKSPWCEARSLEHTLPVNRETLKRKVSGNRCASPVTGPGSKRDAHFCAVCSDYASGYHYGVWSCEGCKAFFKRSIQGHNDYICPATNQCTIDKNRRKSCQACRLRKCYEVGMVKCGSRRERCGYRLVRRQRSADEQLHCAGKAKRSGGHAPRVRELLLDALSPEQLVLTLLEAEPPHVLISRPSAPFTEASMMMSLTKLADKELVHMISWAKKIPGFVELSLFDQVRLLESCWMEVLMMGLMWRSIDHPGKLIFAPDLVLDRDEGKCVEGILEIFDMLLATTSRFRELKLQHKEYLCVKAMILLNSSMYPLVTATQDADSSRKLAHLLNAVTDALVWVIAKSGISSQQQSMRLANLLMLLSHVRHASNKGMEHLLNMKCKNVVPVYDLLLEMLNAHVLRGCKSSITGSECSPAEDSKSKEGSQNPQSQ

Row | Structure (SMILES) | IC50 (MDA-MB-231) [µM] | IC50 (MCF7 [1]) [µM] | IC50 [2] [µM] | IC50 (Histone deacetylase 1) [µM] | IC50 (Estrogen receptor) [µM] | selectivity ratio [3] | IC50 (Vero) [µM] | Ratio IC50 (MCF7 [4]) | IC50 (DU-145) [µM] | Activity [5] | IC50 (Histone deacetylase 8) [µM]
1 | CC/C(=C(\c1ccccc1)c1ccc(OCCN(C)Cc2ccc(NC(=O)CCCCCCC(=O)NO)cc2)cc1)c1ccccc1 | 8.1 | 3.8 | 0.221 | 2.7 | 0.127 | 0.95 | 3.6 | 4 | 14.1 |  | 
2 | CC/C(=C(\c1ccccc1)c1ccc(OCCN(C)Cc2ccc(-c3cn(CCCCCC(=O)NO)nn3)cc2)cc1)c1ccccc1 | 10 | 7.2 | 0.567 | 0.524 | 0.248 | 1.26 | 9.1 | 2 | 20.6 |  | 
3 | CC(O)(CS(=O)(=O)c1ccc(F)cc1)C(=O)Nc1ccc(C#N)c(C(F)(F)F)c1 (configuration not stated) [BICALUTAMIDE] |  |  |  |  |  |  |  |  | 18 |  | 
4 | C[C@]12CC[C@@H]3c4ccc(O)cc4CC[C@H]3[C@@H]1CC[C@@]2(O)c1cn(CCCC(=O)NO)nn1 | 28.4 | 22 | 0.008 | 0.015 |  | > 1.82 |  |  |  | Active | 11
5 | C[C@]12CC[C@@H]3c4ccc(O)cc4CC[C@H]3[C@@H]1CC[C@@]2(O)c1cn(CCCCC(=O)NO)nn1 |  |  | 0.14 | 0.4 |  |  |  |  |  | Active | 5
6 | C[C@]12CC[C@@H]3c4ccc(O)cc4CC[C@H]3[C@@H]1CC[C@@]2(O)c1cn(CCCCCC(=O)NO)nn1 | 22.6 |  | 0.032 | 0.075 |  |  |  |  | 26.9 | Active | 4
7 | CC/C(=C(\c1ccccc1)c1ccc(OCCN(C)C)cc1)c1ccccc1 [TAMOXIFEN] | 17 | 15.6 |  |  |  |  | 15.9 |  |  |  | 
8 | C#C[C@]1(O)CC[C@H]2[C@@H]3CCc4cc(O)ccc4[C@H]3CC[C@@]21C [ETHINYL ESTRADIOL] | 32.9 |  |  |  |  |  |  |  |  |  | 
9 | C[C@]12CC[C@@H]3c4ccc(O)cc4CC[C@H]3[C@@H]1CC[C@@]2(O)c1cn(CCCCCCC(=O)NO)nn1 | 14.1 | 37.3 | 0.013 | 0.028 |  |  |  |  | 27 | Active | 0.45
10 | C[C@]12CC[C@@H]3c4ccc(O)cc4CC[C@H]3[C@@H]1CC[C@@]2(O)c1cn(CCCCCCCC(=O)NO)nn1 | 33.9 |  | 1.3 | 9 |  |  |  |  |  | Active | 20
